# Results from article PMC5355235, “FLT3 activating mutations display differential sensitivity to multiple tyrosine kinase inhibitors” (Oncotarget, 2017).
# pIC50: −log10 of the molar value. Where two headings read alike, the source gives them in different places.
# How the values were obtained:
# [1] = tested on: BaF3 FLT3 840G+S mutant cells; experiment: MTT growth inhibition assay, BaF3 FLT3 840G+S cells; assay type: cell-based; details: no IL-3, 48 h, read-out: Proliferation IC50
# Description: (§1) Figure 1 Growth of AL mutants in the presence of FLT3 TKI The BaF3 AL mutants were grown in the absence of IL-3 and analyzed by treatment in increasing concentrations of FLT3 TKI for 48 hours, after which growth inhibition was assessed using the MTT assay. Means are representative of at least three independent experiments.
# (§2) The cells were grown in the absence of IL3 and analyzed by treatment in increasing concentrations of FLT3 TKI for 48 hours, after which growth inhibition was assessed using the MTT assay. Each experiment was performed at least three times and representative results are shown.
# (§3) Based on Trypan Blue exclusion, 2 × 10^4 viable cells were seeded in quadruplicate in a 96-well microtiter plate in the presence or absence of inhibitor for 48 h. The effect of drug activity on cell viability was measured using the 3-(4,5-Dimethylthiazol-2-yl)-2,5-diphenyltetrazolium bromide (MTT) assay according to the manufacturer's instructions (Roche Applied Science, Indianapolis, IN, USA). Following treatment, cells were incubated for 4 h in MTT followed by dissolution in solubilization buffer overnight. Absorbance was measured at 570 nm on a Bio-Rad plate reader (Hercules, CA, USA). […] Results shown are presented as means and are representative of at least three independent experiments.
# [2] = tested on: BaF3 FLT3 I836T mutant cells; experiment: MTT growth inhibition assay, BaF3 FLT3 I836T cells; assay type: cell-based; details: no IL-3, 48 h, read-out: Proliferation IC50
# Description: as §1, §2, §3
# [3] = tested on: BaF3 FLT3 D835N mutant cells; experiment: MTT growth inhibition assay, BaF3 FLT3 D835N cells; assay type: cell-based; details: no IL-3, 48 h, read-out: Proliferation IC50
# Description: as §1, §2, §3
# [4] = tested on: BaF3 FLT3 D835Y mutant cells; experiment: MTT growth inhibition assay, BaF3 FLT3 D835Y cells; assay type: cell-based; details: no IL-3, 48 h, read-out: Proliferation IC50
# Description: as §1, §2, §3
# [5] = tested on: BaF3 FLT3 D835A mutant cells; experiment: MTT growth inhibition assay, BaF3 FLT3 D835A cells; assay type: cell-based; details: read-out: Proliferation IC50
# Description: as §1, §2, §3
# [6] = tested on: BaF3 FLT3 I836S mutant cells; experiment: MTT growth inhibition assay, BaF3 FLT3 I836S cells; assay type: cell-based; details: read-out: Proliferation IC50
# Description: as §1, §2, §3
# FLT3/ITD = FLT3/ITD autophosphorylation and signaling pathways, Western blot; assay type: cell-based; details: FLT3/ITD cells, 1 h, concentration-dependent
# Description: (§4) Activated FLT3 expression was measured by performing immunoprecipitation, SDS-PAGE and Western blotting as previously described. Specifically, 10^7 cells were washed in medium and treated with inhibitor for 1 h followed by stimulation with 25 ng/ml of FLT3 ligand for 15 minutes where indicated. Cells were washed twice with ice-cold PBS and lysed in 300 µl of NP-40 lysis buffer (150 mM NaCl, 20 mM TrisHCl (pH7.4), 10% glycerol, 1% NP-40, 10 mM EDTA, 100 mM NaF) with 2 mM Na3VO4 and protease inhibitors (Complete Tablets, Roche, Mannheim, Germany) at 4°C for 30 m. Cell lysate was harvested by centrifugation at 13,000 × g for 30 m at 4°C. FLT3 S-18 antibody was incubated with 500 µg lysate overnight at 4°C followed by immunoprecipitation with protein A-agarose beads for 2 h. Beads were washed once in Tris buffered saline with 1% Tween-20 (TBST) and twice in TBS. Samples were boiled in sodium dodecyl sulfate (SDS) sample buffer prior to separating in a 8% SDS-polyacrylamide gel (SDS-PAGE). Proteins were transferred to a polyvinyl diflouride (PVDF) membrane (Millipore, Bedford, MA, USA) and detected by 4G10 phosphotyrosine antibody and anti-FLT3 S-18 antibody. FLT3 was visualized using the Odyssey Infra Red Imaging System from Li-Cor (Lincoln, NE, USA) using AlexaFluor 680 goat anti-mouse and AlexaFluor 800 goat anti-rabbit antibodies. Phosphorylation of the FLT3 downstream signaling mediators, STAT5, AKT and MAP kinase was investigated by loading 50 µg of whole cell lysate and probing with the indicated antibodies. The membrane was washed and incubated in goat anti-rabbit secondary antibody conjugated to horseradish peroxidase followed by enhanced chemiluminescence (ECL). The membrane was subsequently stripped in 200 mM glycine buffer, pH 2.5 with 0.1% Tween-20 and reprobed for STAT5, AKT and MAP kinase expression using the respective antibodies.
# FLT3 D835Y = molecular target: T1, FLT3 D835Y (Homo sapiens, UniProt P36888, D835Y); experiment: FLT3 autophosphorylation, immunoprecipitation/Western blot, D835Y; assay type: cell-based; details: FLT3 D835Y cells, highest concentrations tested, 1 h
# T1 construct: expressed in transfected cells; host or cells: BaF3
# T1 sequence (P36888 27-993 D835Y): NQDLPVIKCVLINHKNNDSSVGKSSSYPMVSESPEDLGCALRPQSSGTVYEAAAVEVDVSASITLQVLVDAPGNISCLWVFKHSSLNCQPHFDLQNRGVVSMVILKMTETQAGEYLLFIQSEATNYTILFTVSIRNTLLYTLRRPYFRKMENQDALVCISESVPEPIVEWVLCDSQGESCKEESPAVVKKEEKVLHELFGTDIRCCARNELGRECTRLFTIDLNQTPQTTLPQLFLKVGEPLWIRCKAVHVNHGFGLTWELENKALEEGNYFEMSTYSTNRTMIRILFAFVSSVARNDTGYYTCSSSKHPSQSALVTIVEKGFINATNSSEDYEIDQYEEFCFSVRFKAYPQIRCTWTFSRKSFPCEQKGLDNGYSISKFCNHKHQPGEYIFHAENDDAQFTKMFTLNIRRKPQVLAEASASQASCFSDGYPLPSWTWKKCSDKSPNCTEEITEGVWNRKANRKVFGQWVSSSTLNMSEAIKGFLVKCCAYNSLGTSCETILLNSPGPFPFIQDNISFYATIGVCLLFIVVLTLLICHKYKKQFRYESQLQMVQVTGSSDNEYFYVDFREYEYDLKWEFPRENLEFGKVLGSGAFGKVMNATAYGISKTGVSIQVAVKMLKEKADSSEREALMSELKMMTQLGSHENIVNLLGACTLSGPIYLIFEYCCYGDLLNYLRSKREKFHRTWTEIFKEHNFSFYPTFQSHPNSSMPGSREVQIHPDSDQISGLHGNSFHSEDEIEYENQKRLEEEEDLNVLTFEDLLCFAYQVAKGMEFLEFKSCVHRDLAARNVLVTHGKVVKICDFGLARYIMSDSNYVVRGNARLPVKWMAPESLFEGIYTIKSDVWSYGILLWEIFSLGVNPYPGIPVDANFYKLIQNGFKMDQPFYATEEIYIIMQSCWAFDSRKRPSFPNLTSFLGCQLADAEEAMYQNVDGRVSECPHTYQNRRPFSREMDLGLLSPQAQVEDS
# Description: as §4, with “Phosphorylation of the FLT3 downstream signaling mediators, STAT5, AKT and MAP kinase was investigated by loading 50 µg of whole cell lysate and probing with the indicated antibodies. The membrane was washed and incubated in goat anti-rabbit secondary antibody conjugated to horseradish peroxidase followed by enhanced chemiluminescence (ECL). The membrane was subsequently stripped in 200 mM glycine buffer, pH 2.5 with 0.1% Tween-20 and reprobed for STAT5, AKT and MAP kinase expression using the respective antibodies.” left out
# [7] = tested on: BaF3 FLT3 D835G mutant cells; experiment: MTT growth inhibition assay, BaF3 FLT3 D835G cells; assay type: cell-based; details: no IL-3, 48 h, read-out: Proliferation IC50
# Description: as §1, §2, §3
# BaF3/ITD cells = experiment: MTT growth inhibition assay, BaF3 FLT3-ITD cells; assay type: cell-based; details: no IL-3, 48 h, read-out: Proliferation IC50
# Description: as §1, §2, §3
# BaF3 FLT3 D835Y cells = experiment: Engraftment of BaF3 D835Y luciferase cells in BALB/c mice, bioluminescence imaging; assay type: in vivo; details: day 5 to day 9
# Description: On day 5 following transplantation, the level of engraftment was assessed by imaging mice for bioluminescence on an IVIS Spectrum imager. […] This experiment was repeated three times.
# Cells were sorted for GFP and CD135 expression on a FACS AriaII cytometer using FACSDiva software. For engraftment, 2 ×10^6 cells were injected via tail vein into BALB/c mice (Jackson Laboratories, Bar Harbor, ME, USA) (day 0). […] [36, 37] […] Mice were imaged by intraperitoneal injection of luciferin (3 mg) and visualizing on an IVIS Spectrum imager (Caliper LifeSciences, Hopkinton, MA, USA) using Living Image software for analysis on day 5 following inoculation to monitor engraftment and on day 9 to assess drug effect. All animal procedures were conducted in accordance with the policy of the Johns Hopkins University School of Medicine Animal Care and Use Committee.
# [8] = tested on: BaF3 FLT3 D835L+K mutant cells; experiment: MTT growth inhibition assay, BaF3 FLT3 D835L+K cells; assay type: cell-based; details: no IL-3, 48 h, read-out: Proliferation IC50
# Description: as §1, §2, §3
# [9] = tested on: BaF3 FLT3 I836L+D mutant cells; experiment: MTT growth inhibition assay, BaF3 FLT3 I836L+D cells; assay type: cell-based; details: no IL-3, 48 h, read-out: Proliferation IC50
# Description: as §1, §2, §3
# [10] = tested on: BaF3 FLT3 D593D mutant cells; experiment: MTT growth inhibition assay, BaF3 FLT3 D593D cells; assay type: cell-based; details: no IL-3, 48 h, read-out: Proliferation IC50
# Description: as §1, §2, §3
# all FLT3 AL mutants = details: read-out: FLT3 autophosphorylation IC50, BaF3 cells, 1 h treatment, Western blot
# Description: as §4, with “Phosphorylation of the FLT3 downstream signaling mediators, STAT5, AKT and MAP kinase was investigated by loading 50 µg of whole cell lysate and probing with the indicated antibodies. The membrane was washed and incubated in goat anti-rabbit secondary antibody conjugated to horseradish peroxidase followed by enhanced chemiluminescence (ECL). The membrane was subsequently stripped in 200 mM glycine buffer, pH 2.5 with 0.1% Tween-20 and reprobed for STAT5, AKT and MAP kinase expression using the respective antibodies.” left out
# [11] = Mus musculus, BaF3 FLT3 D835A, no IL-3, 48 h, MTT
# [12] = Mus musculus, BaF3 FLT3 I836S, no IL-3, 48 h, MTT
# [13] = BaF3 FLT3 D835A, no IL-3, 48 h, MTT
# [14] = BaF3 FLT3 I836S, no IL-3, 48 h, MTT
Compound,pIC50 ([1]; Mus musculus),pIC50 ([2]; Mus musculus),pIC50 ([3]; Mus musculus),pIC50 ([4]; Mus musculus),"pIC50 [5, 11]","pIC50 [6, 12]",pIC50 ([7]; Mus musculus),pIC50 (BaF3/ITD cells; Mus musculus),pIC50 ([8]; Mus musculus),pIC50 ([9]; Mus musculus),pIC50 ([10]; Mus musculus),other results
CNC(=O)c1cc(Oc2ccc(NC(=O)Nc3ccc(Cl)c(C(F)(F)F)c3)cc2)ccn1 [Sorafenib],8.30,7.32,7.50,< 5.70,< 6.70,7.99,7.46,7.73,< 6.70,< 6.70,< 6.70,"Inhibition of FLT3 autophosphorylation and phosphorylation of STAT5, AKT and Map kinase (FLT3/ITD): inhibited FLT3 autophosphorylation; Inhibition of FLT3 autophosphorylation (FLT3 D835Y): markedly reduced or absent inhibition; Leukemic burden (bioluminescence) on day 9 (BaF3 FLT3 D835Y cells; 10 mg/kg once daily oral gavage): clear progression of leukemia"
COc1cc(Nc2ncc(F)c(Nc3ccc4c(n3)NC(=O)C(C)(C)O4)n2)cc(OC)c1OC [R406],,,,,,,,,,,,"pIC50 [1]: < 6.70; pIC50 [2]: 6.82; pIC50 [3]: 6.82; pIC50 [4]: < 6.70; pIC50 [5, 13]: < 6.70; pIC50 [6, 14]: < 6.70; pIC50 [7]: 6.85; pIC50 (BaF3/ITD cells): 6.78; pIC50 [8]: < 6.70; pIC50 [9]: < 6.70; pIC50 [10]: < 6.70"
CCN(CC)CCNC(=O)c1c(C)[nH]c(/C=C2\C(=O)Nc3ccc(F)cc32)c1C [Sunitinib],8.40,,7.33,< 7.00,< 6.70,< 6.70,7.32,8.27,< 6.70,< 6.70,< 6.70,
C[C@]12O[C@H](C[C@]1(O)CO)n1c3ccccc3c3c4c(c5c6ccccc6n2c5c31)CNC4=O [Lestaurtinib],8.10,7.87,8.12,8.01,,,8.22,8.07,8.68,8.68,8.10,"pIC50 (all FLT3 AL mutants): ≥ 8.30; pIC50 ([5]; Mus musculus, BaF3, 48 h): 8.30; pIC50 ([6]; Mus musculus, BaF3, 48 h): 7.82; Inhibition of FLT3 autophosphorylation and phosphorylation of STAT5, AKT and Map kinase (FLT3/ITD): inhibited FLT3 autophosphorylation; Leukemic burden (bioluminescence) on day 9 (BaF3 FLT3 D835Y cells; 20 mg/kg twice daily subcutaneous): greatly reduced"
Cc1ccc(F)c(NC(=O)Nc2ccc(-c3cccc4[nH]nc(N)c34)cc2)c1 [Linifanib],8.68,8.28,7.99,< 7.00,< 6.70,< 6.70,8.07,8.62,< 6.70,< 6.70,< 6.70,
CNC(=O)[C@@]1(N)C[C@H]2O[C@]1(C)n1c3ccccc3c3c4c(c5c6ccccc6n2c5c31)C(=O)NC4 [TTT-3002],,,,,,,,,,,,"pIC50 [1]: > 9.00; pIC50 [2]: 8.01; pIC50 [3]: > 9.00; pIC50 [4]: 8.39; pIC50 [5, 13]: 8.89; pIC50 [6, 14]: 8.05; pIC50 [7]: > 9.00; pIC50 (BaF3/ITD cells): > 9.00; pIC50 [8]: 8.17; pIC50 [9]: 7.93; pIC50 [10]: 8.55"
CO[C@@H]1[C@H](N(C)C(=O)c2ccccc2)C[C@H]2O[C@]1(C)n1c3ccccc3c3c4c(c5c6ccccc6n2c5c31)C(=O)NC4 [Midostaurin],7.92,,,,,,,,,,,
O=C(c1ccc(/C=C/c2n[nH]c3ccccc23)cc1)N1CCNCC1 [KW2449],7.46,7.50,7.23,< 6.70,7.21,< 6.70,7.25,7.39,< 6.70,< 6.70,< 6.70,
